Patent US4898729A, “Treatment of hypertension, compounds and compositions for antihypertension and diuresis” (priority 1983, dated 1990)
Like-named read-outs stand apart in the source and are kept apart here.

Experiments:
[1] = cited from earlier work; for Approx. Natriuretic Activity: comparison with chlorothiazide having a value of 1; for Potency as diuretic and natriuretic agent relative to chlorothiazide: chlorothiazide being one
[2] = cited from earlier work; for Range diuretic dose: Example 1 table
plasma proteins = details: cited from earlier work
[3] = in vivo; cited from earlier work
carbonic anhydrase = details: cited from earlier work
[4] = Clinical antihypertensive action dissociated from diuresis; assay type: in vivo, humans
Experimental: Such dosage was preferably administered at hourly intervals over a period of from 4 to 8 hours to hypertensive patients.

For `NS(=O)(=O)c1cc2c(cc1C(F)(F)F)NC(Cc1ccccc1)NS2(=O)=O` (centres unmarked) [Bendroflumethiazide], the “Approx. Natriuretic Activity” value [1] is listed as 100, the Range diuretic dose [2] is listed as 2 to 5 mg and the “Daily Diuretic Dose (average minimum diuretic dose)” value (“Daily Diuretic Dose” below) [2] is listed as 20 mg. The “Binding to plasma proteins” value (plasma proteins) was “proportionately high binding to plasma proteins”.

For `NS(=O)(=O)c1cc2c(cc1Cl)N=C(CSCc1ccccc1)NS2(=O)=O` [Benzthiazide], the “Approx. Natriuretic Activity” value [1] is listed as 10, the Range diuretic dose [2] is listed as 25 to 50 mg and the “Daily Diuretic Dose” value [2] is listed as 200 mg. The “Clinical alkalinization of urine” value [3] was “does not cause an appreciable clinical alkalinization of urine” and the “Carbonic anhydrase inhibition, in words” value (carbonic anhydrase) was “relatively potent carbonic anhydrase inhibitor”.

In the case of `NS(=O)(=O)c1cc2c(cc1Cl)NC(CC1CCCC1)NS2(=O)=O` (centres unmarked) [Cyclopenthiazide], the “Potency as diuretic and natriuretic agent relative to chlorothiazide” value [1] is listed as “thousand times more potent”, the “Potency as diuretic and natriuretic agent relative to chlorothiazide” value ([1]; listed as cyclopenthiazide) is listed as “a thousand” and the “Approx. Natriuretic Activity” value [1] is listed as 1000. For the same compound, the Range diuretic dose [2] was 1 to 6 mg, the “Daily Diuretic Dose” value [2] was 2 mg and the “Daily Diuretic Dose” value ([2]; listed as cyclopenthiazide) was “about 2 mg”. For the same compound, the “Binding to plasma proteins” value (plasma proteins) was “proportionately high binding to plasma proteins”.

For `NS(=O)(=O)c1cc2c(cc1Cl)NC(C1CC3C=CC1C3)NS2(=O)=O` (centres unmarked) [Cyclothiazide], the “Approx. Natriuretic Activity” value [1] is listed as 500, the Range diuretic dose [2] is listed as 1 to 6 mg and the “Daily Diuretic Dose” value [2] is listed as 2 mg. The “Daily Diuretic Dose” value ([2]; listed as cyclothiazide) was “about 2 mg” and the “Binding to plasma proteins” value (plasma proteins) was “proportionately high binding to plasma proteins”.

In the case of `NS(=O)(=O)c1cc2c(cc1C(F)(F)F)N=CNS2(=O)=O` [Flumethiazide], the “Approx. Natriuretic Activity” value [1] is given as 1, the Range diuretic dose [2] is given as 50 to 1000 mg and the “Daily Diuretic Dose” value [2] is given as 200 mg.

For `NS(=O)(=O)c1cc2c(cc1Cl)NCNS2(=O)=O` [Hydrochlorothiazide], the “Approx. Natriuretic Activity” value [1] is listed as 10, the Range diuretic dose [2] is listed as 25 to 100 mg and the “Daily Diuretic Dose” value [2] is listed as 200 mg.

For `CN1C(CCl)Nc2cc(Cl)c(S(N)(=O)=O)cc2S1(=O)=O` (centres unmarked) [Methyclothiazide], the “Approx. Natriuretic Activity” value [1] is listed as 100, the Range diuretic dose [2] is listed as 5 to 10 mg and the “Daily Diuretic Dose” value [2] is listed as 10 mg. The “Binding to plasma proteins” value (plasma proteins) was “proportionately high binding to plasma proteins”.

In the case of `CN1C(CSCC(F)(F)F)Nc2cc(Cl)c(S(N)(=O)=O)cc2S1(=O)=O` (centres unmarked) [Polythiazide], the “Binding to plasma proteins” value (plasma proteins) is listed as “proportionately high binding to plasma proteins”.

For `NS(=O)(=O)c1cc2c(cc1Cl)NC(C(Cl)Cl)NS2(=O)=O` (centres unmarked) [Trichlormethiazide], the “Approx. Natriuretic Activity” value [1] is listed as 200, the Range diuretic dose [2] is listed as 4 to 8 mg and the “Daily Diuretic Dose” value [2] is listed as 8 mg. The “Binding to plasma proteins” value (plasma proteins) was “proportionately high binding to plasma proteins”.

For amiloride-hydrochlorothiazide salt, the “Diuretic response at the antihypertensive daily dose” value ([4]; at the daily dose of b165) was “without diuresis” and the “Daily dose to achieve an antihypertensive effect” value ([4]; dose of active ingredients per day) was “about 50 mg”.
